Assay results: paper PMC9124820, “In vitro evaluation of fenfluramine and norfenfluramine as victims of drug interactions” (Pharmacology Research & Perspectives, 2022)

Experiment: Metabolic stability and metabolite identity, dog intestinal S9 fractions
Type: in vitro ADME
Method: LC‐MS/MS analyses to assess metabolic stability and identify the transporter substrate were performed using an API 4000 QTRAP mass spectrometer (SCIEX, Framingham, MA) with electrospray ionization in positive mode. Chromatography was performed using an Atlantis dC18 analytical column (100 × 2.1 mm, 5 µm; Waters Corporation, Milford, MA). Mobile phases were 0.2% v/v formic acid in water and 0.2% v/v formic acid in acetonitrile. For metabolic stability experiments, FFA and metabolites were eluted at a flow rate of 0.6 mL/min, with a linear gradient of 20%−80% acetonitrile from 0.30−2.0 min. For transporter substrate experiments, the gradient was slightly modified to achieve suitable chromatography. The mass transitions monitored were 232.0 > 159.0 for FFA and 348.0 > 330.0 for 1ʹ‐OH‐midazolam‐d4 internal standard. […]
FFA (1 or 10 µM) was incubated with liver and intestinal S9 fractions (2 mg protein/mL) at 37 ± 1°C in 0.2‐mL incubation mixtures containing potassium phosphate buffer (50 mM, pH 7.4), magnesium chloride (MgCl2) (3 mM), and EDTA (1 mM, pH 7.4), in the presence or absence of a three‐component cofactor mixture (NADPH‐generating system, uridine diphosphate glucuronic acid (UDPGA) [8 mM], and 3’‐phosphoadenosine 5’‐phosphosulfate [0.5 mM]). […] Supernatant fractions were analyzed by LC‐MS/MS.
To characterize substrate loss and metabolic stability, duplicate samples were analyzed by LC‐MS/MS to determine the change in substrate concentration over the incubation period. The rate constant of elimination (kel, min^−1) was determined from the time course of substrate loss based on single exponential decay (A(t)=A0(‐kelt)) . Half‐life in vitro was determined by the following equation: t1/2 = 0.693/kel. The in vitro intrinsic clearance (CLint) was calculated from the rate constant of elimination as follows: CLintμL/min/mgprotein=kelmin^‐1×incubationvolume(μL)/mgproteinperincubation.
Percent loss of substrate was determined by normalizing the mean analyte peak‐area ratio at each time point to the average of four replicates at the 0‐min time point (100%).

[1] = intestinal S9 fractions, pH 7.4, 1 µM FFA, dog intestine S9 fractions, outside assay detection limits

CCNC(C)Cc1cccc(C(F)(F)F)c1 (racemic) [FFA, (RS)‐ethyl (α‐methyl‐3‐trifluoromethylphenethyl)amine]
percentage of FFA substrate loss at 10 µM relative to 1 µM (dog intestinal S9 fractions, higher at 10 µM than at 1 µM): about 2 fold
half-life at 1 µM [1]: > 120 min
microsomal CLint at 1 µM [1]: < 2.9 µL/min/mg
